Bounds are passed on as bounds.

Experimental findings from patent publication US20160052898A1, “NOVEL COMPOUNDS” (BAYER PHARMA AKTIENGESELLSCHAFT, priority 2013, published 2016) are described below.

Common to all, as to assay type: cell-based
Experiment [1] relates to HCT116 FOP control reporter cell line. Put plainly: HCT116 FOP control vector reporter assay (non-functional TCF elements). The following applies: Homo sapiens, HCT-116, 36 h, HCT116 FOP control reporter cells, luciferase expression, 36 hours incubation, 50 μM to 15 nM; read-out: HCT116 FOPFlash IC50. A digest of the protocol: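 Stable HCT116 line carrying the non-functional FOP luciferase construct, 10000 cells/well plated 24 hrs before. Compounds 50 μM to 15 nM (3.16-fold steps) in CAFTY buffer pH 7.4 with 2 mM Ca2+, 36 hours at 37° C; luciferase luminescence read.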
For orientation: A reporter such as luciferase makes a cellular process visible.

Experiment [2] has as its system constitutive active colorectal cancer cell (CRC) Wnt pathway. As to the kind of experiment: HCT116 Super TopFlash cellular reporter assay (constitutive active Wnt pathway). Particulars: Homo sapiens, HCT-116, 36 h, HCT116 TOP reporter cells, luciferase expression, 36 hours incubation, 50 μM to 15 nM. In short, it runs like this: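 Luciferase luminescence served as the Wnt read-out after 36 h of compound treatment at 37 °C. Compound came from a pre-dilution series (50 μM down to 15 nM, 3.16-fold steps) in CAFTY buffer. Cells were stable HCT116 TOP reporter cells, with matched FOP-vector control cells tested in parallel, seeded a day earlier.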

The subject of experiment [3] is HEK293 FOP control reporter cell line. As to the kind of experiment: HEK293 FOP control vector reporter assay. The following applies: Homo sapiens; HEK293 FOP control reporter cells, EC50 concentration of recombinant Wnt-3a, 16 hours incubation; read-out: HEK FOP IC50. The procedure: (§1) In order to determine the inhibitory activity of compounds for the WT Wnt signaling pathway, the Super TopFlash vector respectively FOP vector were cotransfected with pcDNA3 into HEK293 and stable transfected HEK293 cells were isolated by antibiotic selection. […] The recombinant human Wnt-3a was thereby used between 2500 and 5 ng/ml in two-fold dilution steps. […] Measurement of luciferase expression was done as described for the constitutive active Wnt assay.
In a parallel approach, HEK293 cells were cotransfected with the FOP control vector and pcDNA3. The FOP vector is identical to the TOP construct, but it contains instead of functional TCF elements a randomized, non-functional sequence. For this transfection a stable transfected cell line was generated as well, based on selection with Geneticin (1 mg/ml).
(§2) In preparation of the assay, the two cell lines were plated 24 hours before beginning the test at 10000 cells per well in a 384 micro titre plate (MTP) in […] growth medium. […] The recombinant human Wnt-3a was thereby applied between 2500 and 5 ng/ml in two-fold dilution steps. Selective inhibitory activity for small molecules on the wildtype Wnt pathway was determined after parallel incubation of both (TOP and FOP) HEK293 reporter cell lines with a compound dilution series from 50 μM to 15 nM in steps of 3.16-fold dilutions in CAFTY buffer (130 mM NaCl, 5 mM KCl, 20 mM HEPES, 1 mM MgCl2, 5 mM NaHCO3, pH 7.4) containing 2 mM Ca^2+ and 0.01% BSA.
(§3) The compounds were thereby serially prediluted in 100% DMSO and thereafter 50 fold into the CAFTY compound dilution buffer (described above).

Another experiment concerns wildtype Wnt pathway. Put plainly: HEK293 Super TopFlash cellular reporter assay, Wnt-3a stimulated (wildtype Wnt pathway). Particulars: Homo sapiens; HEK293 TOP reporter cells, EC50 concentration of recombinant Wnt-3a, 16 hours incubation; read-out: HEK TOP OncoFlash IC50. As for the experimental part: as §1
In order to discover and characterize small molecules which inhibit the wildtype Wnt pathway, a cellular reporter assay was employed. The corresponding assay cell was generated by transfection of the mammalian cell line HEK293 (ATCC, #CRL-1573) with the Super TopFlash vector (Morin, Science 275, 1997, 1787-1790; Molenaar et al., Cell 86 (3), 1996, 391-399). The HEK293 cell line is cultivated at 37° C. and 5% CO2 in DMEM (Life Technologies, #41965-039), supplemented with 2 mM glutamine, 20 mM HEPES, 1.4 mM pyruvate, 0.15% Na-bicarbonate and 10% foetal bovine serum (GIBCO, #10270). Stable transfectants were generated by selection with 300 μg/ml Hygromycin.
as §2, §3

One may read the IC50 as the concentration that gives 50% inhibition. Take `COc1ccc(C(=O)Nc2ccc(-c3ccccc3)cc2)cc1NC(=O)CN1CCOCC1` [Example 1, N-(biphenyl-4-yl)-4-methoxy-3-[(morpholin-4-ylacetyl)amino]benzamide]: the half-maximal inhibitory concentration (IC50) in experiment [1] was ≥ 50000 nM; in experiment [2], 157 nM; in experiment [3] it was ≥ 50000 nM; in the experiment with wildtype Wnt pathway, 3300 nM.
For `COc1ccc(C(=O)Nc2ccc(-c3ccccc3)cc2)cc1NC(=O)Cn1cccn1` [Example 2, N-(biphenyl-4-yl)-4-methoxy-3-[(1H-pyrazol-1-ylacetyl)amino]benzamide], the IC50 is ≥ 50000 nM in experiment [1], 3200 nM in experiment [2], 50000 nM in experiment [3] and 1480 nM in the experiment on wildtype Wnt pathway.
As for `CC(C)(C(=O)Nc1cc(C(=O)Nc2ccc(-c3ccccc3)cc2)ccc1C(F)(F)F)n1cccn1` [Example 4, N-(biphenyl-4-yl)-3-{[2-methyl-2-(1H-pyrazol-1-yl)propanoyl]amino}-4-(trifluoromethyl)benzamide], the half-inhibitory concentration (IC50) was ≥ 50000 nM in experiment [1], 112 nM in experiment [2], 8600 nM in experiment [3] and 400 nM with wildtype Wnt pathway.
For `COc1ccc(C(=O)Nc2ccc(-c3ccccc3)cc2)cc1NC(=O)CN1C[C@@H]2C[C@H]1CO2` [Example 7, N-(biphenyl-4-yl)-4-methoxy-3-{[(1S,4S)-2-oxa-5-azabicyclo[2.2.1]hept-5-ylacetyl]amino}benzamide], the concentration for half-maximal inhibition (IC50) was ≥ 50000 nM in experiment [1], 963 nM in experiment [2], 10000 nM in experiment [3] and 820 nM in the experiment on wildtype Wnt pathway.
The matching figures for `COc1ccc(C(=O)Nc2ccc(-c3ccccc3)cc2)cc1NC(=O)CN1CC2CCC(C1)O2` [Example 8, N-(biphenyl-4-yl)-4-methoxy-3-[(8-oxa-3-azabicyclo[3.2.1]oct-3-ylacetyl)amino]benzamide]: ≥ 50000 nM, 70 nM, ≥ 50000 nM and 270 nM.
In the case of `O=C(CN1CCOCC1)Nc1cc(C(=O)Nc2ccc(-c3ccccc3)cc2)ccc1C(F)(F)F` [Example 9, N-(biphenyl-4-yl)-3-[(morpholin-4-ylacetyl)amino]-4-(trifluoromethyl)benzamide], the 50% inhibitory concentration (IC50) in experiment [1] was ≥ 50000 nM; in experiment [2] it was 40 nM; in experiment [3] it was ≥ 50000 nM; with wildtype Wnt pathway, 120 nM.
With `COC(=O)c1ccc(C(=O)Nc2ccc(-c3ccccc3)cc2)cc1NC(=O)CN1CCOCC1` [Example 12, methyl 4-(biphenyl-4-ylcarbamoyl)-2-[(morpholin-4-ylacetyl)amino]benzoate], the 50% inhibitory concentration (IC50) is ≥ 50000 nM in experiment [1], 40 nM in experiment [2], ≥ 50000 nM in experiment [3] and 440 nM with wildtype Wnt pathway.
On to `O=C(CN1CCOCC1)Nc1cc(C(=O)Nc2ccc(-c3ccccc3)cc2)ccc1Br` [Example 13, N-(biphenyl-4-yl)-4-bromo-3-[(morpholin-4-ylacetyl)amino]benzamide], for which the half-inhibitory concentration (IC50) is ≥ 50000 nM in experiment [1], 91 nM in experiment [2], 12000 nM in experiment [3] and 500 nM with wildtype Wnt pathway.
Taken in the same sequence, the figures for `CC(C(=O)Nc1cc(C(=O)Nc2ccc(-c3ccccc3)cc2)ccc1C(F)(F)F)N1CCOCC1` (centres unmarked) [Example 14, N-(biphenyl-4-yl)-3-{[2-(morpholin-4-yl)propanoyl]amino}-4-(trifluoromethyl)benzamide] were ≥ 50000 nM, 27 nM, 7000 nM and 240 nM.
Taken in the same sequence, the figures for `C[C@@H](C(=O)Nc1cc(C(=O)Nc2ccc(-c3ccccc3)cc2)ccc1C(F)(F)F)N1CCOCC1` [Example 15, N-(biphenyl-4-yl)-3-{[(2S)-2-(morpholin-4-yl)propanoyl]amino}-4-(trifluoromethyl)benzamide] were 39500 nM, 29.6 nM, 4000 nM and 100 nM.
For `COc1ccc(NC(=O)c2ccc(-c3ccccc3)cc2)cc1NC(=O)CN1CCOC[C@@H]1CCO` [Example 213, N-[3-({[(3S)-3-(2-hydroxyethyl)morpholin-4-yl]acetyl}amino)-4-methoxyphenyl]biphenyl-4-carboxamide], the values for the IC50 in experiment [1] and in experiment [2] were ≥ 50000 nM and 4600 nM, respectively.
Taken in the same sequence, the figures for `COc1ccc(NC(=O)c2ccc(-c3ccccc3)cc2)cc1NC(=O)CN1CCO[C@H](CO)C1` [Example 214, N-[3-({[(2S)-2-(hydroxymethyl)morpholin-4-yl]acetyl}amino)-4-methoxyphenyl]biphenyl-4-carboxamide] were ≥ 50000 nM and 4900 nM.
The matching figures for `COc1c(Cl)cc(C(=O)Nc2ccc(-c3ccccc3)cc2)cc1NC(=O)CN1CCN(C)CC1` [Example 215, N-(biphenyl-4-yl)-3-chloro-4-methoxy-5-{[(4-methylpiperazin-1-yl)acetyl]amino}benzamide]: 18900 nM and 772 nM.
On to `COc1c(F)cc(C(=O)Nc2ccc(-c3ccccc3)cc2)cc1NC(=O)CN1CCN(C)CC1` [Example 216, N-(biphenyl-4-yl)-3-fluoro-4-methoxy-5-{[(4-methylpiperazin-1-yl)acetyl]amino}benzamide], for which the half-maximal inhibitory concentration (IC50) came out at 6950 nM in experiment [1] and 524 nM in experiment [2].
Taken in the same sequence, the figures for `COCCOCCOc1ccc(C(=O)Nc2ccc(-c3ccccc3)cc2)cc1NC(=O)C1(N2CCOCC2)CC1` [Example 217, N-(biphenyl-4-yl)-4-[2-(2-methoxyethoxy}ethoxy)-3-({[1-(morpholin-4-yl)cyclopropyl]carbonyl}amino)benzamide] were 1630 nM and 27 nM.
The matching figures for `COCCOc1ccc(C(=O)Nc2ccc(-c3ccccc3)cc2)cc1NC(=O)C1(N2CCOCC2)CC1` [Example 218, N-(biphenyl-4-yl)-4-(2-methoxyethoxy)-3-({[1-(morpholin-4-yl)cyclopropyl]carbonyl)amino)benzamide]: ≥ 50000 nM and 11 nM.
Taken in the same sequence, the figures for `O=C(CN1CCN(C2CC2)CC1)Nc1cc(C(=O)Nc2ccc(-c3ccccc3)cc2)ccc1OCC1CC1` [Example 219, N-(biphenyl-4-yl)-4-(cyclopropylmethoxy)-3-{[(4-cyclopropylpiperazin-1-yl)acetyl]amino}benzamide] were ≥ 50000 nM and 65.5 nM.
`O=C(CN1CCOCC1)Nc1cc(C(=O)Nc2ccc(-c3ccccc3)cc2)ccc1OCC1CC1` [Example 220, N-(biphenyl-4-yl)-4-(cyclopropylmethoxy)-3-[(morpholin-4-ylacetyl)amino)benzamide]: the IC50 is ≥ 50000 nM in experiment [1] and 160 nM in experiment [2].
Turning to `COCCOCCOc1ccc(C(=O)Nc2ccc(-c3ccc(C)cc3)cc2)cc1NC(=O)C1(N2CCOCC2)CC1` [Example 221, 4-[2-(2-methoxyethoxy)ethoxy]-N-(4′-methylbiphenyl-4-yl)-3-({[1-(morpholin-4-yl)cyclopropyl]carbonyl}amino)benzamide], the IC50 is ≥ 50000 nM in experiment [1] and 1100 nM in experiment [2].
For `CN1CCN(CC(=O)Nc2cc(C(=O)Nc3ccc(-c4ccccc4)cc3)ccc2OCC2CC2)CC1` [Example 222, N-(biphenyl-4-yl)-4-(cyclopropylmethoxy)-3-{[(4-methylpiperazin-1-yl)acetyl]amino}benzamide], the IC50 in experiment [1] came out at 9000 nM; in experiment [2], 105 nM.
The matching figures for `O=C(Nc1ccc([N+](=O)[O-])cc1Cl)c1cc(Cl)ccc1O` [Ref., niclosamide, reference compound]: 3100 nM and 1380 nM.
